{"source": "ChEMBL document CHEMBL1201862", "about": "“PubChem BioAssay data set” (2004)", "key": {"[1]": {"assay": "ADAM10 protease inhibitors, dose response, selectivity assay for ADAM17 exosite inhibitor project, biochemical, FRET peptide substrate, recombinant human ADAM10 (AID 743259);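 note: ADAM10 enzyme cleaving a FRET peptide substrate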"}, "[2]": {"target": "Disintegrin and metalloproteinase domain-containing protein 17 (Homo sapiens, UniProt P78536)", "sequence (P78536 whole entry, the tested form may be a part)": "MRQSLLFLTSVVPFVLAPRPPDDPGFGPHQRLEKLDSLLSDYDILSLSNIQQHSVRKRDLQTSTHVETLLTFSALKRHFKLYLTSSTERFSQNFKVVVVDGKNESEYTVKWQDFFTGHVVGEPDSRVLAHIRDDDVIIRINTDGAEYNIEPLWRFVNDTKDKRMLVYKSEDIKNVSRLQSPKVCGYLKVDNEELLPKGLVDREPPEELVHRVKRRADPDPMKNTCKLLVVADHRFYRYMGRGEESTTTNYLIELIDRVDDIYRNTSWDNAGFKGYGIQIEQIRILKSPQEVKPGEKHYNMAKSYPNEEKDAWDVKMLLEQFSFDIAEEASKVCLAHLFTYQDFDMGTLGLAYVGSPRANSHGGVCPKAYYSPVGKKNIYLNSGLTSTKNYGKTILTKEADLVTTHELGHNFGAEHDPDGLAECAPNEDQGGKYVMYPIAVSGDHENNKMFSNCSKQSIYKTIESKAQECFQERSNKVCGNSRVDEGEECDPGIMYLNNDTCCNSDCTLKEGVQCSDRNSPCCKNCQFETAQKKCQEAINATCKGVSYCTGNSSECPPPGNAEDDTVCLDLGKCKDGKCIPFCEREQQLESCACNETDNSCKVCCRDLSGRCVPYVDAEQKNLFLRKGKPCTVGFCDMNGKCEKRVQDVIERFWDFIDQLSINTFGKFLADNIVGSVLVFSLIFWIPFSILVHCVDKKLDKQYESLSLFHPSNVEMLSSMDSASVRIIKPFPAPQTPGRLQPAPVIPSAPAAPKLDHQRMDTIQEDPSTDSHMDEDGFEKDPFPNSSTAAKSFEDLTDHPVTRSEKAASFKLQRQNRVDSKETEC", "assay": "exosite inhibitors of ADAM17, dose response, biochemical (AID 743260)"}, "[3]": {"target": "Prothrombin (Homo sapiens, UniProt P00734)", "assay": "Thrombin 1536 HTS Dose Response Confirmation. [Related pubchem assays: 1046 (Thrombin 1536 HTS; hits were confirmed in this assay)]", "format": "functional"}, "[4]": {"assay": "miR-122 activators in hepatoma reporter cells, dose response, cell-based, Huh7 psiCHECK-miR122, Renilla luciferase, cherry-picked (AID 651956);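 note: huh7 hepatoma cells stably carrying a psiCHECK-2 miR-122 sensor plasmid; renilla luciferase signal reporting endogenous miR-122 activity after 48 h compound exposure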", "format": "functional"}, "[5]": {"assay": "HEK293T cytotoxicity, dose response, cytotoxicity control for miR-122 modulator project, cell-based, activator set, cherry-pick (AID 720690);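 note: HEK293T human cells scored for general mammalian cytotoxicity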", "format": "functional"}, "[6]": {"target": "T1, Polyadenylate-binding protein 1 (Homo sapiens, UniProt P11940)", "T1 sequence (P11940 whole entry)": "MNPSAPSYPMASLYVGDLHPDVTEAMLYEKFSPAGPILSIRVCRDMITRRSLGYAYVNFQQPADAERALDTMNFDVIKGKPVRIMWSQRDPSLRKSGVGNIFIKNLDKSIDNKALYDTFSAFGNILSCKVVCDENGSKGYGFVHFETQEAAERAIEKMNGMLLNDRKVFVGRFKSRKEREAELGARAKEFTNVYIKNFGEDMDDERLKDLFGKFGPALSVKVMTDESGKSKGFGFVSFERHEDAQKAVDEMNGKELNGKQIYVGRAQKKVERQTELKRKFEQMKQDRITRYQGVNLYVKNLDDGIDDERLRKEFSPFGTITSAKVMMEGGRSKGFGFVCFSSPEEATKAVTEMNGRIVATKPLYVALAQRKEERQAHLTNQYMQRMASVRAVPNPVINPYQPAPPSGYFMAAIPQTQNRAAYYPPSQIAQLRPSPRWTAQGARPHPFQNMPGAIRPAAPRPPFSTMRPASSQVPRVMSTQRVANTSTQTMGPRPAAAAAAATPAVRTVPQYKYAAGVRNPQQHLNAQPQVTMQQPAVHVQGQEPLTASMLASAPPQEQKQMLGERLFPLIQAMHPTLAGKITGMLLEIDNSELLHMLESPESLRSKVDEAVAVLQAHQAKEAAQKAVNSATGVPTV", "assay": "PABP1 MLLE–PAM2 interaction inhibitors, dose response, miRNA deadenylation inhibitor project, biochemical, fluorescence polarization, Cy5-PAM2 peptide, secondary (AID 602260)", "format": "functional", "settings": "read-out: IC50_Mean"}, "[7]": {"target": "T1, Polyadenylate-binding protein 1", "assay": "PABP1 MLLE–PAM2 binding inhibitor potency, dose response, biochemical, fluorescence polarization, FITC-PAM2 peptide (AID 602259)", "format": "functional", "settings": "read-out: IC50_Mean"}, "[8]": {"target": "Large T antigen (Simian virus 40, UniProt P03070)", "sequence (P03070 whole entry)": "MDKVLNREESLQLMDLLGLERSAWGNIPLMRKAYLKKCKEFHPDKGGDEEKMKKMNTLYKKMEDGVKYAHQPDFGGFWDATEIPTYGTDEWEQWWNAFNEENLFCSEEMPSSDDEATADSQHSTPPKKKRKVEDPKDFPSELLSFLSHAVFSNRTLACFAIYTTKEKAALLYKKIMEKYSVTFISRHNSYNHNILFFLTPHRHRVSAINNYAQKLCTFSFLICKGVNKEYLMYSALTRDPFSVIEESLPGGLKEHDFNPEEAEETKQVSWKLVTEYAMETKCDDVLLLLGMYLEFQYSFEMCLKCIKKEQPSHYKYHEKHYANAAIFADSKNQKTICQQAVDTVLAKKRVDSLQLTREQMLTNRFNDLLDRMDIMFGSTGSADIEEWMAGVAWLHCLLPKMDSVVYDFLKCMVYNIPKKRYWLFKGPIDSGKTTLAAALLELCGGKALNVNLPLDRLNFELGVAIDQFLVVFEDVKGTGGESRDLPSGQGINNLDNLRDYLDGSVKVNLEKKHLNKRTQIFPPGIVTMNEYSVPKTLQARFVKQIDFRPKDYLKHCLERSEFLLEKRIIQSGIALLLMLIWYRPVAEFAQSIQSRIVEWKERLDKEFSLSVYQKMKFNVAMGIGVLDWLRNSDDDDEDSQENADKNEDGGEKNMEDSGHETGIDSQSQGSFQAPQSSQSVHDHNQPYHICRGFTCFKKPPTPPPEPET", "format": "functional, Betapolyomavirus macacae"}, "[9]": {"target": "Genome polyprotein (dengue virus type 2, UniProt P29990)", "sequence (P29990 2492-3391 limits assumed)": "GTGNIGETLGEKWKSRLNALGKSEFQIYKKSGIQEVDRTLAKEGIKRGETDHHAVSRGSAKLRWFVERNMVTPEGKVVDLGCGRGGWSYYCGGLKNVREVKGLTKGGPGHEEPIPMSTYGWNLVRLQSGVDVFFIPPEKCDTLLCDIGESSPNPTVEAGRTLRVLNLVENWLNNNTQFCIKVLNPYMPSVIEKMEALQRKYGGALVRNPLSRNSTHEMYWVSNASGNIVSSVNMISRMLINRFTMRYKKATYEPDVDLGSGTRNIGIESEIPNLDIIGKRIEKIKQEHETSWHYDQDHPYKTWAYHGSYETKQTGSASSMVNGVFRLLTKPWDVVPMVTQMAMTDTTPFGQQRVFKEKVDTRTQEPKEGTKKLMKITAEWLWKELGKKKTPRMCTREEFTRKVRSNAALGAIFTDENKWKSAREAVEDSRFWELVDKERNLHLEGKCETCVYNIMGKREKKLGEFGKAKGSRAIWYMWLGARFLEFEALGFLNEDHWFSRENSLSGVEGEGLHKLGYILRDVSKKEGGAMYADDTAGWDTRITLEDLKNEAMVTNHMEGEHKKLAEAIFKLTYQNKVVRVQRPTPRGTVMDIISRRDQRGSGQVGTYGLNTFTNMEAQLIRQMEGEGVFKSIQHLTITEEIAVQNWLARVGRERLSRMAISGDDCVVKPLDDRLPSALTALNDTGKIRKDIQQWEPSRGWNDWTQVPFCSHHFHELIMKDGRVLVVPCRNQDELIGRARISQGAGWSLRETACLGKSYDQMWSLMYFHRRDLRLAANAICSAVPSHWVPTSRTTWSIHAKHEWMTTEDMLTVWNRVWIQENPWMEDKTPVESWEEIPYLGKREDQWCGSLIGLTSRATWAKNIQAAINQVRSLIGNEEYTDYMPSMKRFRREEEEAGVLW", "assay": "Dengue-2 NS5 methyltransferase inhibitors, primary screen, biochemical, confirmation dose response (AID 588689)", "format": "functional"}, "[10]": {"target": "T2, Bifunctional protein GlmU (Mycobacterium tuberculosis, UniProt P9WMN3)", "T2 sequence (P9WMN3 whole entry)": "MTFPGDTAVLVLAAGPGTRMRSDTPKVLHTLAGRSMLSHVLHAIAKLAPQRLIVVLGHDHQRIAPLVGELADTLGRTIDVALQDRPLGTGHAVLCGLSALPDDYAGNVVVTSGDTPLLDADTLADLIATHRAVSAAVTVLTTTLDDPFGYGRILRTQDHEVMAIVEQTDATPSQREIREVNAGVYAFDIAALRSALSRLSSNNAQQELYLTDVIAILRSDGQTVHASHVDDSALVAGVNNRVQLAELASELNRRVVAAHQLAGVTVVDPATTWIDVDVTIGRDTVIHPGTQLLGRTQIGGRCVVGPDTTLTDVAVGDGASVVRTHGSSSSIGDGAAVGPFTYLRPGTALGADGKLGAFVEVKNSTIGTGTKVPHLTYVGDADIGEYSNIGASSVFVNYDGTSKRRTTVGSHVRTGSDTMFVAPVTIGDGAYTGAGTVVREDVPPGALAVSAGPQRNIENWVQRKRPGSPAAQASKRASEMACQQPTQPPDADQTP", "assay": "Inhibitors of Mycobacterial Glucosamine-1-phosphate acetyl transferase (GlmU). Secondary screen.", "set-up": "species or system Mycobacterium tuberculosis H37Rv"}, "[11]": {"assay": "HepG2 cell cytotoxicity, dose response, cytotoxicity control, cherry-picked samples (AID 1159577)", "format": "functional, cell-based"}, "[12]": {"assay": "P. falciparum Dd2 growth inhibitors, dose response, SYBR Green, cherry-picked samples (AID 1159567)", "format": "functional, cell-based"}, "[13]": {"target": "Paired box protein Pax-8 (Homo sapiens, UniProt Q06710)", "sequence (Q06710 whole entry)": "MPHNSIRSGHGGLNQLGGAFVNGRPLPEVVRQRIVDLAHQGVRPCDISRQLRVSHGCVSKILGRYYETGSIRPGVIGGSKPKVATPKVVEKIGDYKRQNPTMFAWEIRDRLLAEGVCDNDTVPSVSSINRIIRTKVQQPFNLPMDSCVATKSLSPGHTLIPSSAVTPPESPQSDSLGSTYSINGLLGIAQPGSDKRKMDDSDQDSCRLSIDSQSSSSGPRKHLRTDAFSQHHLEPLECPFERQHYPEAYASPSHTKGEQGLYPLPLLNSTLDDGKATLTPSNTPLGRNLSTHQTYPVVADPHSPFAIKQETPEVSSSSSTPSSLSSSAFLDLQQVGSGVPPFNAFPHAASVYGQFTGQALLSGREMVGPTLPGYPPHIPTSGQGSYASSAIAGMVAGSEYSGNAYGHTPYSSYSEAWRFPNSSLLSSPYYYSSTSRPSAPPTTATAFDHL", "assay": "inhibitors of PAX8-driven TPO luciferase reporter, dose response, RMG-I cells, cherry-pick (AID 687027);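 note: luciferase reporter driven by Pax8 target thyroperoxidase promoter measured by SteadyGlo luminescence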", "format": "functional, cell-based"}, "[14]": {"assay": "NIH:OVCAR-3 ovarian cancer cell cytotoxicity, dose response, PAX8 inhibitor project, plate reader, dry powder samples (AID 743044)", "format": "functional, cell-based"}}, "note": "Active and inactive are the calls of the source."}
{"smiles": "CCCn1c(CCNc2nc(-c3cccc(Br)c3)cs2)nc2ccccc21", "values": [{"measurement": "IC50", "setting": "[1]", "result": "> 69.6 µM (inactive)"}, {"measurement": "IC50", "setting": "[2]", "result": "> 69.6 µM (inactive)"}]}
{"smiles": "CCCC(C)C(=O)Nc1ccc(F)c(Cl)c1", "note": "(stereo not given)", "values": [{"measurement": "IC50", "setting": "[3]", "result": "> 50 µM (not active)"}]}
{"smiles": "O=C(Nc1ccccc1)N1CCCCN2[C@@H](CO)[C@H](c3ccc(C4=CCCCC4)cc3)[C@@H]2C1", "values": [{"measurement": "AC50", "setting": "[4]", "result": "10 µM (active)"}, {"measurement": "AC50", "setting": "[5]", "result": "10 µM (active)"}]}
{"smiles": "O=C(O)c1ccc(Nc2cc(Cl)c3nonc3c2[N+](=O)[O-])cc1", "values": [{"measurement": "IC50", "setting": "[6]", "result": "> 66 µM (inactive)"}, {"measurement": "IC50", "setting": "[7]", "result": "> 66 µM (inactive)"}, {"measurement": "IC50", "setting": "[8]", "result": "76.6 µM (active)"}, {"measurement": "IC50", "setting": "[9]", "result": "12 µM (active)"}, {"measurement": "IC50", "setting": "[10]", "result": "92 µM (active)"}]}
{"smiles": "CCOc1ccc(NC(=O)C(C)O)c(NS(=O)(=O)c2ccc(CCNC(C)=O)cc2)c1", "note": "(stereo not given)", "values": [{"measurement": "IC50", "setting": "[3]", "result": "> 50 µM (not active)"}]}
{"smiles": "OC[C@@H]1[C@H](c2ccc(-c3ccc(F)cc3)cc2)[C@H](CNC2CCCC2)N1CCC(F)(F)F", "values": [{"measurement": "AC50", "setting": "[11]", "result": "16.5 µM (active)"}, {"measurement": "AC50", "setting": "[12]", "result": "2.51 µM (active)"}]}
{"smiles": "COCC(=O)N1CCCCN2[C@H](C1)[C@@H](c1ccc(-c3ccc(C)cc3)cc1)[C@@H]2CO", "values": [{"measurement": "AC50", "setting": "[13]", "result": "58.9 µM (active)"}, {"measurement": "AC50", "setting": "[14]", "result": "56.3 µM (active)"}]}
